From patent publication US20080267862A1, “METHOD OF TREATING CANCER” (priority 2007, published 2008)

Columns and labels:
[1] = induction of angiogenesis in-vivo; conditions: for effectiveness, on their own, in inducing angiogenesis response: each on its own
Excerpt: (§1) Lysine induced repair process depends on the ability of the amino acid/derivative(s) to induce rapid and controlled cellular expansion, both in-vitro and in-vivo. The phenomenon is probably based on the ability of the molecule(s) to act as the cell surface concentrator(s) of circulating growth factor(s). The rapid angiogenic property of the molecule(s) is also entirely dependent on the same phenomenon, where angiogenic factors are concentrated, locally, on the endothelial cell surface receptors, mediated by the molecule(s) working, possibly, as molecular bridges.

[2] = test system: hybridoma cell mass; conditions: high-density hybridoma culture, fed-batch and batch; Datta, D et al. 1997; cited from earlier work
[3] = test system: cells in culture; test: cellular expansion / rapid cellular growth in culture in-vitro; type: cell-based; conditions: FIG. 3
Excerpt: as §1

[4] = expanding cells in-vivo
Excerpt: The present invention is based on an improvement over the inventor's earlier discovery that lysine, without the presence of any other angiogenic factor(s)/angiogenic growth factor(s)/vasculogenic/granulation tissue inducing agent(s), is capable of inducing angiogenesis in ischaemic tissues. The inventor's initial inquiries were directed towards finding new chemical additives in a high-density-culture system, in-vitro, where the objective was to expand viable hybridoma cell mass to the maximum possible at the least possible time (lag phase minimization) and maintaining the viable cell mass in culture for the maximum possible time period, in both fed-batch as well as batch cultures. The final goal was to get highest possible yields of monoclonal antibody (Mab) in the said high-density culture. […] Because of its ability to expand cells in-vitro, the cationic amino acid was taken, along with its d-isomer and short oligomer (m.w. up to or around 500-2500) to in-vivo experimentation and clinical conditions, for controlled regeneration of cells (in clinical conditions), where in-situ regeneration of cells was centrally important along with angio-neogenesis/vasculogensis.

[5] = test system: recurrence lymph node masses; test: clinical response of recurrent lymph node masses in a patient followed by palliative chemotherapy; type: in vivo, human; conditions: one patient; LMH 4 g/day I.V. for 4 days, then 2 cycles of palliative chemotherapy with Cisplatin and 5 FU
Excerpt: […] They underwent Radical surgery in the form of total excision of primary tumors and bilateral Supra-omohyoid Neck dissection. Adjuvant External Beam Radiotherapy (EBRT) was then given 66 Gy/33 Fr 6½ weeks and the patient went into complete remission and was disease free for >9 months.
Subsequently, the patient had multiple nodal recurrences presenting with palpable masses.
(§2) Recurrences were confirmed with biopsy and HP examination. Subsequently, the patient was given 2 cycles of Palliative Chemotherapy, following Injection LMH (Lysine Monohydrochloride) for 4 days (4 g/day I.V. in divided doses), with Cisplatin and 5 FU.

[6] = test system: squamous cell carcinomatous tumor; test: histopathology (HPE) of neo-angiogenesis 96 hrs after Injection LMH in a patient; type: in vivo, human; conditions: LMH 4 g/day I.V. for 4 days, HPE after 96 hrs
Excerpt: as §2
HPE was done 96 hrs after Injection LMH to confirm the neo-angiogenesis (FIGS. 4 & FIGS. 5 & FIGS. 6-9)(Also compare FIGS. 4 to 9 with FIGS. 10-11 for quantitative comparison of angiogenic response in LMH treated squamous cell carcinomatous tumor vs. control tumours).

| SMILES | effectiveness, on their own, in inducing angiogenesis response [1] | expansion of biomass (cell population) compared to other physico-chemical means [2] | cellular expansion in culture ([3]; about 10 mcg/ml of added load, in addition to the usual load of l-lysine in the media) | effectiveness in expanding cells / inducing rapid cellular growth in-vitro, compared to l-lysine ([3]; in-vitro) | effectiveness in inducing angiogenesis in-vivo, compared to l-lysine ([1]; in-vivo) | effectiveness in expanding cells in-vivo, compared to the l-variety [4] | outcome of recurrence lymph node masses [5] | angiogenic response in glandular structure (histopathology) ([6]; FIG. 4) | angiogenic response in tumor tissue (histopathology) ([6]; FIGS. 5-9, versus control FIGS. 10-11) |
| --- | --- | --- | --- | --- | --- | --- | --- | --- | --- |
| NCCCC[C@H](N)C(=O)O [l-lysine] | equally effective | expand the biomass (cell population) at the least possible time | – | – | – | – | – | – | – |
| NCCCC[C@@H](N)C(=O)O [d-lysine] | equally effective | – | mediated cellular expansion in culture | equally effective | equally effective | equally effective | – | – | – |
| Cl.NCCCC[C@H](N)C(=O)O [LMH, Lysine Monohydrochloride] | – | – | – | – | – | – | disappeared achieving a 2nd complete recovery | extensive angiogenic response | huge angiogenic and massive blood channel formation |
